Laboratory results published in patent US7452911B2 (Boehringer Ingelheim Pharma GmbH & Co. KG, priority 2002, dated 2008).

Legend:
hMCH-1R = biological target: T1, hMCH-1R (Homo sapiens, UniProt Q99705); experiment: MCH-1 receptor binding test (125I-MCH binding to membranes of hMCH-1R transfected CHO/Galpha16 cells); details: 100 pM 125I-MCH, membranes of CHO/Galpha16 cells stably transfected with hMCH-1R, 60 minutes at ambient temperature
T1 construct: expressed in transfected cells; host or cells: CHO/Galpha16 cells, stably transfected; membrane preparation
Protocol: Membranes from CHO/Galpha16 cells stably transfected with human hMCH-1R are resuspended using a syringe (needle 0.6×25 mm) and diluted in test buffer (50 mM HEPES, 10 mM MgCl2, 2 mM EGTA, pH 7.00; 0.1% bovine serum albumin (protease-free), 0.021% bacitracin, 1 μg/ml aprotinin, 1 μg/ml leupeptin and 1 μM phosphoramidone) to a concentration of 5 to 15 μg/ml. […] After the incubation the reaction is filtered using a cell harvester through 0.5% PEI treated glass fibre filters (GF/B, Unifilter Packard). The membrane-bound radioactivity retained on the filter is then determined after the addition of scintillator substance (Packard Microscint 20) in a measuring device (TopCount of Packard).
The analysis of the concentration binding curve is carried out on the assumption of one receptor binding site.

MCH-1R [1] = biological target: T2, MCH-1R (Rattus norvegicus, UniProt P97639); set-up: host or cells: whole animals (in vivo); details: animals treated with the antagonist; cited from earlier work
MCH-1R [2] = biological target: T2, MCH-1R; set-up: host or cells: rats (in vivo); details: rats; cited from earlier work

T2 sequence (P97639 whole entry): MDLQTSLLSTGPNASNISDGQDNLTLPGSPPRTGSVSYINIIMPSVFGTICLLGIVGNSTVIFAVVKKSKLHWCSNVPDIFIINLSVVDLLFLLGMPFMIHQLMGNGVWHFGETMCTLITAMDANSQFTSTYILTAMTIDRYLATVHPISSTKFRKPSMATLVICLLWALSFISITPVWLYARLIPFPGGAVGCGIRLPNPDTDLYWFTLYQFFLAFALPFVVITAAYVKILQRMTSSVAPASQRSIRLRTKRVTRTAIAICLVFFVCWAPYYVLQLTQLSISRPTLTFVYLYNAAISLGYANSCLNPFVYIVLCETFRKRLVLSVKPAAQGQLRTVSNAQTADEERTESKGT
T1 sequence (Q99705 whole entry): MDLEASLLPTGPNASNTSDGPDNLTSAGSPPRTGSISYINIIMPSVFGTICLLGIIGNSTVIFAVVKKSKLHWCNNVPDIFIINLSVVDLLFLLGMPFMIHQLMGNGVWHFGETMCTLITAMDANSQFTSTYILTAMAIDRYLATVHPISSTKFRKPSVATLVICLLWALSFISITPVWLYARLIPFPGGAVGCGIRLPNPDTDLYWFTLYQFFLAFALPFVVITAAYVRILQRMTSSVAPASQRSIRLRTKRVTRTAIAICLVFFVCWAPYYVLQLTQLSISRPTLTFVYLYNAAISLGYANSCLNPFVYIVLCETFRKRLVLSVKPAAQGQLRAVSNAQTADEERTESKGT

CN(C)CC1CCN(CCOc2ccc(C#Cc3ccc(-c4ccc(Cl)cc4)cn3)cc2)CC1.Cl
melting point: > 250 °C

CCN(CC)CCOc1ccc(C#Cc2ccc(-c3ccc(F)c(F)c3)cn2)cc1 [Example 1.3, (2-{4-[5-(3,4-difluoro-phenyl)-pyridin-2-ylethynyl]-phenoxy}-ethyl)-diethyl-amine]
IC50 (hMCH-1R): 74 nM

Clc1ccc(-c2ccc3nc(C#Cc4ccc(CN5CCCC5)cc4)ccc3c2)cc1 [Example 17, 6-(4-chloro-phenyl)-2-(4-pyrrolidin-1-ylmethyl-phenylethynyl)-quinoline]
melting point: 170 to 193 °C

Clc1ccc(-c2ccc3nc(C#Cc4ccc(OCCN5CCCC5)cc4)ccc3c2)cc1 [Example 18, 6-(4-chloro-phenyl)-2-[4-(2-pyrrolidin-1-yl-ethoxy)-phenylethynyl]-quinoline]
melting point: 176 to 185 °C

Clc1ccc(-c2ccc3nc(C#Cc4cccc(OCCN5CCCC5)c4)ccc3c2)cc1 [Example 19, 6-(4-chloro-phenyl)-2-[3-(2-pyrrolidin-1-yl-ethoxy)-phenylethynyl]-quinoline]
melting point: 114 to 117 °C

Clc1ccc(-c2ccc3nc(C#Cc4ccc5oc(CN6CCCC6)nc5c4)ccc3c2)cc1 [Example 20, 6-(4-chloro-phenyl)-2-(2-pyrrolidin-1-ylmethyl-benzoxazol-5-ylethynyl)-quinoline]
melting point: 151 to 153 °C

Clc1ccc(-c2ccc(C#Cc3ccc4oc(CN5CCCC5)nc4c3)nc2)cc1 [Example 21, 5-[5-(4-chloro-phenyl)-pyridin-2-ylethynyl]-2-pyrrolidin-1-ylmethyl-benzoxazole]
melting point: 145 °C

COCC1=C(C(=O)OC)[C@H](c2ccc(F)c(F)c2)N(C(=O)NCCCN2CCC(c3cccc(NC(C)=O)c3)CC2)C(=O)N1 [SNAP-7941]
body weight in long term trials (MCH-1R [1]): lose significant amounts of weight
effects in behavioural experiments (MCH-1R [2]): anxiolytic and antidepressant effects
